{
  "source": "patent US10350271B2",
  "about": "“Lipidated peptides for lowering blood glucose” (USTAV ORGANICKE CHEMIE A BIOCHEMIE AKADEMIE VED CR, V.V.I., priority 2014, dated 2019)",
  "key": {"[1]": {"target": "T1, rat PrRP receptor (Rattus norvegicus, UniProt Q64121)", "T1 construct": "host or cells: RC-4B/C rat pituitary cell line", "T1 sequence (Q64121 1-370)": "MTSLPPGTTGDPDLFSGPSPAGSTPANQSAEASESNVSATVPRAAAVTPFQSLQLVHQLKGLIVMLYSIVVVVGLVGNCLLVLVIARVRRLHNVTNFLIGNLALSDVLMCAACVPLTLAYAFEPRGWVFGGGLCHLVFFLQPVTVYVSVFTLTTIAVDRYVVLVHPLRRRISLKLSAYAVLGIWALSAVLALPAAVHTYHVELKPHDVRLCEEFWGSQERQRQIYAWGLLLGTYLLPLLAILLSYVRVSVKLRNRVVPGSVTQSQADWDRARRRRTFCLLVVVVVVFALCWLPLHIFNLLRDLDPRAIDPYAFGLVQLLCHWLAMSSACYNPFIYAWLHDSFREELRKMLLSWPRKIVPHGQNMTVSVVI", "test": "Competitive binding in RC-4B/C rat pituitary cells (125I-rat PrRP31)", "method_in_brief": "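Intact rat pituitary RC-4B/C cells incubated 60 min at room temperature with […] rat 125I-PrRP31 and unlabeled analog (10^−11 to 10^−4 mol·l^−1) in HEPES pH 7.4 buffer. Cell-bound radioactivity γ-counted after NaOH lysis; one-site competition fit.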"}, "[2]": {"tested_on": "obese diabetic monosodium-glutamate (MSG) mice", "test": "IPGTT after 10 days administration to obese diabetic MSG mice", "format": "in vivo", "conditions": "5 mg/kg SC twice a day for 10 days, vs saline", "protocol": "Mice were subjected to a 10-day food intake experiment. […] After 10 days of treatment, mice were fasted overnight and IPGTT was performed. After initial blood glucose measurement, 2 g/kg glucose solution was administered intraperitoneally (IP).\nObese mice were created using MSG. L-glutamic acid sodium salt hydrate (Sigma, St. Louis, USA) was subcutaneously (SC) administered to newborn male mice, at a dose of 4 mg/g body weight, daily from postnatal days 2 to 8 to induce obesity. The MSG treated mice used for experiments were 24 weeks old. Age related mice were used as controls. Obese and control mice were placed into separate cages with free access to food and water. The following week, mice were subjected to a 10-day food intake experiment. […] Consumption of the St-1 diet and the body weight of the mice were simultaneously followed. After 10 days of treatment, mice were fasted overnight and IPGTT was performed. After initial blood glucose measurement, 2 g/kg glucose solution was administered IP.\nBlood glucose was then measured at 15, 30, 60, 120 and 180 min post injection as described above."}, "[3]": {"target": "T2, human PrRP receptor GPR10 (Homo sapiens, UniProt P49683)", "T2 construct": "host or cells: CHO cells", "T2 sequence (P49683 1-370)": "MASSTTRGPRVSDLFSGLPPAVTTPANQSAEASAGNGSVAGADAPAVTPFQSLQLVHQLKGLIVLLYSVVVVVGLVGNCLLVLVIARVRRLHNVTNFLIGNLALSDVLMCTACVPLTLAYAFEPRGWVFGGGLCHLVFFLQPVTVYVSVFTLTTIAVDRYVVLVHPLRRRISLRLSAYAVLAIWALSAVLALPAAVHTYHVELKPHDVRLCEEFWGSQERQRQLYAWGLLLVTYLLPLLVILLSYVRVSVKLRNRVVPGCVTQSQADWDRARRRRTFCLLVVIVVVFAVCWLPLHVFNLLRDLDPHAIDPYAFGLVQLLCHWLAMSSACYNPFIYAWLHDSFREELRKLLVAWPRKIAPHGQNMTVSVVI", "test": "Competitive binding in CHO cells transfected with human GPR10 (human 125I-PrRP31)", "method_in_brief": "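GPR10-transfected CHO cells (40-80 thousand/well) incubated 60 min at room temperature with 5×10^-11 mol·l^-1 human 125I-PrRP31 and unlabeled analog at 10^-11 to 10^-4 mol·l^-1 in Tris binding buffer pH 7.4. Cells solubilized in 0.1 mol/l NaOH, γ-counted; one-site nonlinear regression fit.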"}, "[4]": {"tested_on": "C57BL/6 mice", "test": "Food intake in fasted mice after SC injection", "format": "in vivo", "conditions": "5 mg/kg SC, 45 min after injection", "method_in_brief": "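Overnight-fasted animals (food removed 17 h before dosing, water available) in individual cages got saline, PrRP or lipidated PrRP analogs SC at 1-10 mg/kg.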"}},
  "data": [
    {"compound": "CCCCCCCCCCCCCCCC(=O)N[C@@H](CO)C(=O)N[C@@H](CCCNC(=N)N)C(=O)N[C@H](C(=O)N[C@@H](Cc1c[nH]cn1)C(=O)N[C@@H](CCCNC(=N)N)C(=O)N[C@@H](Cc1c[nH]cn1)C(=O)N[C@@H](CO)C(=O)N[C@@H](CCSC)C(=O)N[C@@H](CCC(=O)O)C(=O)N[C@H](C(=O)N[C@@H](CCCNC(=N)N)C(=O)N[C@H](C(=O)N1CCC[C@H]1C(=O)N[C@@H](CC(=O)O)C(=O)N[C@H](C(=O)N[C@@H](CC(N)=O)C(=O)N1CCC[C@H]1C(=O)N[C@@H](C)C(=O)N[C@@H](Cc1c[nH]c2ccccc12)C(=O)N[C@@H](Cc1ccc(O)cc1)C(=O)N[C@@H](C)C(=O)N[C@@H](CO)C(=O)N[C@@H](CCCNC(=N)N)C(=O)NCC(=O)N[C@H](C(=O)N[C@@H](CCCNC(=N)N)C(=O)N1CCC[C@H]1C(=O)N[C@H](C(=O)NCC(=O)N[C@@H](CCCNC(=N)N)C(=O)N[C@@H](Cc1ccccc1)C(N)=O)C(C)C)[C@@H](C)CC)[C@@H](C)CC)[C@@H](C)O)[C@@H](C)CC)[C@@H](C)O", "note": "[Analog 43]", "values": [
      {"measurement": "Ki", "setting": "[1]", "result": "0.95 ± 0.35", "unit": "nM"},
      {"measurement": "Displacement of rat 125I-PrRP binding", "setting": "[1]; RC-4B/C cells, rat PrRP receptor", "result": "nmol·l^−1 range"},
      {"measurement": "% of PrRP31, RC-4B/C rat pituitary cells", "setting": "[1]; affinity relative to PrRP31", "result": 519, "unit": "%"},
      {"measurement": "IPGTT area under the curve through 180 min", "setting": "[2]", "result": "substantially lower"},
      {"measurement": "IPGTT blood glucose levels", "setting": "[2]", "result": "lower"},
      {"measurement": "% of PrRP31, GPR10 human receptor transfected in CHO cells", "setting": "[3]; affinity relative to PrRP31", "result": 90, "unit": "%"},
      {"measurement": "Displacement of human 125I-PrRP binding", "setting": "[3]; human GPR10 receptor", "result": "nmol·l^−1 range"},
      {"measurement": "Food intake in mice % of saline-treated group", "setting": "[4]", "result": 30, "unit": "%"}
    ]}
  ]
}
